Source: a melting point compilation (Tetko et al.; mined from patent text by program, amines drawn as free bases though some values may be those of a salt)

| SMILES | melting point |
| --- | --- |
| CC(=O)Oc1ccc(C=C2CCCc3cc(C)cnc32)cc1OC(C)=O | 100 to 101 °C |
| Cc1ccccc1CC(C(=O)Nc1cnc(Br)cn1)c1ccc(S(C)(=O)=O)cc1 (stereo not given) | 194 to 195 °C |
| Cc1ccc(C(=O)N2CCc3cc(S(=O)(=O)N4CC(c5ccccc5)NC4=O)ccc32)cc1 (stereo not given) | 125 °C |
| CC(C)Nc1nc(Nc2cccc(NS(C)(=O)=O)c2)nc2[nH]cnc12 | 161 to 165 °C |
| CCOc1ccc(C2=NN(C3CCN(C(=O)CCCC(=O)O)CC3)C(=O)[C@@H]3CC=CC[C@H]23)cc1OCC | 133 to 135 °C |
| OCc1cn2c(n1)CN=C(c1ccccc1)c1cc(Cl)ccc1-2 | 203 to 204 °C |
| O=S1(=O)N=CN(C2CC2)c2cc(F)cc(F)c21 | 167 to 168 °C |
| O=C(c1cccs1)c1cnn2c(-c3cccc(NCCc4ccccc4)c3)ccnc12 | 118 to 120 °C |
| CC(=O)C1C(C(=O)c2ccc(Cl)cc2)CC2C3CCC4=CC(=O)CCC4(C)C3(F)C(O)CC21C (stereo not given) | 280 to 281 °C |
| CCCCC1=Nc2ccccc2SN1 | 153 to 155 °C |
| C=C1CCC2C3CCC4=C(CC=C(OC)C4)C3CCC12C (stereo not given) | 77 to 78 °C |
| CN(C)C=Nc1ccc(-c2c[nH]cn2)cc1 | 141 to 142 °C |
| CC1Oc2cc(C3=NNC(=O)CC3)ccc2NC1=O (stereo not given) | 294 to 295 °C |
| O=C(NC1CC1)c1cc2[nH]cnc2c(Cl)c1NC(=O)c1cc(C(F)(F)F)nn1-c1ncccc1Cl | 198 to 201 °C |
| COc1cccc(C(Cn2ccnc2)=[N+](C)[O-])c1 | 87 to 90 °C |
| CCOC(=O)ONC(=N)COc1cc(OCC(=N)NOC(=O)OCC)c2c(C)c(Cc3ccccc3)c(=O)oc2c1 | 87 to 92 °C |
| COc1ccc(CN(C)CCCc2ccc(NC(=O)c3cccc4c(=O)c5cccc(OC)c5[nH]c34)c(C)c2)cc1OC | 154 °C |
| CC1(CN=[N+]=[N-])COC(Cn2ccnc2)(c2ccc(Cl)cc2Cl)OC1 (stereo not given) | 132 to 133 °C |
| CCCNCCc1ccc(NS(=O)(=O)c2ccc(Cl)cc2)cc1 | 137 to 140 °C |
| CC(=O)c1ccc(C)cc1N(C)C=O | 58 to 60 °C |
| CC(=O)CCCCCCC(=O)c1ccc(OCc2ccccc2)c(OCc2ccccc2)c1 | 64 to 66 °C |

| SMILES | melting point |
| --- | --- |
| CCCN1N=C2C(=Cc3ccccc3)CS(=O)CC2C1c1ccccc1 (stereo not given) | 164 to 166 °C |
| CCOC(=O)Cn1cc2c(n1)CCN(C(=O)OC(C)(C)C)C2 | 90 to 91 °C |
| COC(=O)c1ccccc1C(=O)n1nc(O)ccc1=O | 144 to 145 °C |
| Cc1ccnc(NC(N)=S)c1 | 210 to 212 °C |
| COC(=O)C1=C(C)NC(C)=C(C(=O)OCCN2CCN(C(c3ccccc3)c3ccccc3)CC2)C1c1cccc([N+](=O)[O-])c1 (stereo not given) | 166 to 169 °C |
| O=[N+]([O-])c1cc(CO)c(Cl)cc1F | 39 to 41 °C |
| OCC(=C(c1ccc(F)cc1)c1ccc(F)cc1)c1nnn(C(c2ccccc2)(c2ccccc2)c2ccccc2)n1 | 176 to 178 °C |
| O=C1C(=O)c2ccccc2C2=C1SCC1(CCN(C(=O)c3ccco3)CC1)O2 | 165 °C |
| FC(F)(F)C1(c2cc(Cl)cc(Cl)c2)CC(c2ccc(-n3cccn3)cc2)=NO1 (stereo not given) | 174 to 175 °C |
| CCCCCCCCCCCCCCCCOc1cc(NS(=O)(=O)c2cc(N)ccc2OCCOC)c(O)cc1C | 142 to 144 °C |
| CO[C@@H]1CC[C@H](C(=O)O)Cc2onc(-c3ccc(Cl)cc3)c21 (relative stereo) | 168 to 170 °C |
| CCCCCCCOc1ccc(C(N)=O)cc1 | 149 to 152 °C |
| CCCCCCCCCCCCCCCCSCC(CNS(=O)(=O)CCCI)NC(C)=O (stereo not given) | 75 to 76 °C |
| CCOCn1nccc1C(O)c1ccc(O)c(Cl)c1Cl (stereo not given) | 150 °C |
| Clc1ccc(C#Cc2c3ccccc3c(C#Cc3ccc(Cl)cc3)c3ccccc23)cc1 | 268 °C |
| COc1ccc(CN2CCC(N=C(NC#N)N3CCc4ccccc4C3)CC2)cc1 | 135 to 137 °C |
| CCn1nc(C)c(N)c1C | 69 to 70 °C |
| CCOC(=O)c1c(C(C)C)nc(-c2ccccc2)c(-c2ccccc2)c1-c1ccc(F)cc1 | 135 to 136 °C |
| Cc1cc(C(=O)N2Cc3cccn3Cc3ccccc32)ccc1[N+](=O)[O-] | 246 to 248 °C |
| COCc1ccc(-c2coc3ccc(-c4nnc(C)o4)cc23)cc1 | 158 to 159 °C |
| O=C(NC1CCN(CC23CC(c4ccccc42)c2ccccc23)CC1)NC1CCCCO1 (stereo not given) | 211 to 212 °C |

| SMILES | melting point |
| --- | --- |
| CON(C)C(=O)c1ocnc1C | 59 to 60 °C |
| COC(=O)C1=C(N)C(CCCCC(=O)O)SC1 (stereo not given) | 98 to 102 °C |
| CCOC(=O)c1ncn2c1C(C)N=C(c1ccccc1)c1cc(Br)ccc1-2 (stereo not given) | 164 to 165 °C |
| CCN(CC)c1ccc(-c2cc(-c3ccc(C(=O)O)cc3)ccc2CCCN)cc1C(C)(C)C | 272 °C |
| CNS(=O)(=O)c1ccc(-c2cnc3[nH]cc(C(=O)C(C)(C)C)c3n2)cc1 | 278 to 280 °C |
| CC(=O)NCc1nc2c(N)nc3cccnc3c2n1CC(C)(C)O | 198 to 200 °C |
| COc1ccc(N2CN(c3ccccc3)C(N)=C3C=NN=C32)cc1 | 204 to 206 °C |
| COc1cccc(CO)c1CO | 95 °C |
| COc1ccc(Cl)cc1C1=NC(C)(C)CO1 | 50 to 51 °C |
| O=C(NCCCN1CCC(c2ccccc2)(c2ccccc2)CC1)N1CCOCC1c1ccc(F)c(F)c1 (stereo not given) | 71 to 74 °C |
| Cc1ccccc1-c1cc(N2CCOCC2)ncc1C(N)=O | 144 to 145 °C |
| CCOC(=O)C1=C(C)NN=C(C(=O)OC)C1c1cccnc1 (stereo not given) | 179 °C |
| O=C(Oc1ccc(C(=O)c2ccc(Cl)cc2)cc1)Oc1ccc(C(=O)c2ccc(Cl)cc2)cc1 | 235 to 237 °C |
| COC(=O)c1cc(C(=O)OC)cc(-c2cc(C(=O)OC)cc(C(=O)OC)c2)c1 | 214 to 215 °C |
| C#CC1N(C(=O)Oc2ccccc2)c2cc(OC(=O)C(C)(C)C)ccc2C23OC12CCCC3=O (stereo not given) | 164 to 166 °C |
| CC(C)SC1=C(O)CC(C)(C)CC1=O | 74.5 to 79.5 °C |
| NC(=O)c1sc2nccc(N3CCCC(c4ccccc4)C3)c2c1N (stereo not given) | 267 to 269 °C |
| CN1Cc2c(-c3nc(CCl)co3)ncn2-c2ccccc2C1=O | 196 to 198 °C |
| CC(C)N1CC(C(C(N)=O)(c2ccccc2)c2ccccn2)C1 (stereo not given) | 140 to 141 °C |

More lines, now with the values ahead:

| melting point | SMILES |
| --- | --- |
| 86 to 89 °C | Cc1nnc(Cl)c(-c2c(F)cc(F)cc2F)c1-c1ccc2ccccc2c1 |
| 95 to 100 °C | CC1(C)COc2cc3c(cc21)C1(CO3)C(=O)Nc2ccccc21 (stereo not given) |
| > 280 °C | CS(=O)(=O)c1cc2[nH]c(=O)c(=O)n(C3CCCCC3)c2cc1-n1cccc1 |
| 196 to 198 °C | CCN1c2ncc(CCc3ccc(N(C)S(C)(=O)=O)cc3)cc2C(=O)N(C)c2ccc(Cl)nc21 |
| 243 °C | O=C1CC(c2cccc(-n3ccnn3)c2)=Nc2cc(O)c(C#Cc3ccc(F)cc3)cc2N1 |
| 287 to 289 °C | CCCCc1ncc(C=C2C(=O)NC(=O)N2CCCC)n1Cc1ccccc1C(=O)O |
| 146 to 151 °C | COCCC(=O)N(Cc1ccc(OC(F)(F)F)cc1)c1cc(Cl)cc(-c2nnn[nH]2)c1 |
| 317 to 319 °C | O=C(O)Cn1c(=O)c(=O)[nH]c2cc(Cl)c(Cl)cc21 |
| 255 °C | Cc1nc2c3c(ccc2n1C)C(=O)C(OC(=O)C(C)(C)C)C(c1ccccc1)O3 (stereo not given) |
| 240 °C | COC(=O)C(=O)Nc1c(-c2ccccc2)c(=O)[nH]c2cc(Cl)ccc12 |
| 196 to 198 °C | CC(C)(C)C(NC(=O)c1ccc(Cl)cc1)NC(=NC#N)Nc1cc(F)ccc1F (stereo not given) |
| 197 to 199 °C | CCCc1nnc2c3cccc(Br)c3ccn12 |
| 222 to 225 °C | Cc1nc(N2CCN(Cc3ccc(F)cc3)C2=O)sc1C(=O)NCc1cccnn1 |
| 218 to 220 °C | COc1ccc2c(=O)[nH]c(-c3cc(C)c(OCCN4CCCC4)c(C)c3)nc2c1 |
| 188 to 189 °C | Cc1cc(OCC(=O)Nc2cccc(C(=O)O)c2)ccc1C(C)C |
| 141 to 148 °C | O=C(O)c1ccc(C(=O)OC(c2ccc3c(c2)OCO3)c2ccc3c(c2)OCO3)s1 |
| 108 °C | CCCCCS(=O)(=O)NC(=O)/C=C/c1ccc(OCCO[Si](c2ccccc2)(c2ccccc2)C(C)(C)C)cc1Oc1ncc(C(F)(F)F)cc1Cl |

| melting point | SMILES |
| --- | --- |
| 73 to 77 °C | Cc1cc(SC2=C(O)CC(CCc3cccs3)(C(C)C)OC2=O)c(C(C)(C)C)cc1CO (stereo not given) |
| 98 to 100 °C | COc1ccc(CSC2=NC(c3cccc(Cl)c3Cl)C(C(=O)OC(C)C)=C(C)N2)cc1 (stereo not given) |
| 175 to 177 °C | Cc1nc2c(C(F)(F)F)cccc2c(-c2ccccc2)c1C(=O)c1ccccc1 |
| 69 to 71 °C | CCN(C(=O)C(C)(C)C)c1ccc(F)cc1F |
| 159 to 160 °C | CC(C(N)=O)c1ccc2c(c1)Oc1ccccc1CC2=O (stereo not given) |
| 190 to 191 °C | O=c1[nH]ncc2[nH]c(-c3ccc(OC(F)F)c(OC4CC4)c3)c(CO)c12 |
| 104 to 106 °C | CC(C)(C)c1nc2c(Cl)ccc(-n3c(=O)cc(C(F)(F)F)n(N)c3=O)c2o1 |
| 193 °C | O=C(O)CCc1cccc(-c2nc(=O)c3ccc(C(F)(F)F)cc3s2)n1 |
| 223 to 225 °C | CCn1c(=O)c(-c2c(Cl)cccc2Cl)cc2cnc(Nc3ccccc3)nc21 |
| 254 to 255 °C | O=c1[nH]c2cc(C(F)(F)F)ccc2n1-c1cc(Cl)cc(Br)c1O |
| 59.5 to 61 °C | CCCCSc1cnc2c(c1)CCC(c1ccc(Cl)c(Cl)c1)O2 (stereo not given) |
| 128 to 130 °C | COC1(c2cc(F)cc(Sc3ccc4c(c3)n(C)c(=O)n4C)c2)CCOCC1 |
| 160 to 162 °C | C=CCc1c(O)ccc2c(C)c(CC(=O)OC)c(=O)oc12 |
| 173 to 174 °C | Cc1nn(Cc2ccc(Cl)cc2)c(C)c1CC(=O)O |
| 170 to 173 °C | COc1cccc(S(=O)(=O)c2ccc3[nH]c(C)c(CCNC(=O)OC(C)(C)C)c3c2)c1 |
| 251 to 253 °C | O=C1CCC(N2Cc3c(OCc4ccc(CNCCO)cc4)cccc3C2=O)C(=O)N1 (stereo not given) |
| 120 to 121 °C | O=S(=O)(Nc1ccccc1COc1cccc2cccnc12)c1cccc(C(F)(F)F)c1 |
